Measured values published in patent US8569292B2, “Cyclic inhibitors of 11β-hydroxysteroid dehydrogenase 1” (Vitae Pharmaceuticals, Inc., priority 2008, dated 2013).

What was measured:
[1] = molecular target: T1, 11β-HSD1 (Homo sapiens, UniProt P28845); experiment: Biological Test Example 4: microsomal 11β-HSD1 in the presence of 50% human plasma; conditions: for Shift: IC50 in Test Example 4 divided by IC50 in Test Example 1
[2] = molecular target: T1, 11β-HSD1; experiment: biochemical; conditions: for inhibition at 0.1 µM: read-out: Average % inhibition at 100 nM
[3] = Biological Test Example 1 IC50 (nM)
[4] = IC50 Range, Biological Test Example 1

T1 sequence (P28845 whole entry): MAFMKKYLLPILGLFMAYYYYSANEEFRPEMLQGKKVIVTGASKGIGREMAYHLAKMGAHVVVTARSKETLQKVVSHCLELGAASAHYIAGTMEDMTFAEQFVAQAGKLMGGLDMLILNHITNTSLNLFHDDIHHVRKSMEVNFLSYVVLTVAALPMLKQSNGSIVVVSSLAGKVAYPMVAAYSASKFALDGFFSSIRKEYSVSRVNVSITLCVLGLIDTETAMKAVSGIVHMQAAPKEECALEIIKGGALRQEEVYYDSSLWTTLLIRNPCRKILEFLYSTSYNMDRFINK

IC50 [1] [nM] | Shift [1] | IC50 [2, 3] [nM] | IC50 [2, 4] [nM] | inhibition at 0.1 µM [2] [%] | SMILES
14.5 | 2.6 | 5.6 | < 100 | 88.1 | Cc1cc(-c2ccc([C@H](C)N3CC[C@](CC(C)(C)O)(c4ccc(F)cc4)OC3=O)cc2)cc[n+]1[O-] [EXAMPLE 124, 4-(4-((S)-1-((S)-6-(4-fluorophenyl)-6-(2-hydroxy-2-methylpropyl)-2-oxo-1,3-oxazinan-3-yl)ethyl)phenyl)-2-methylpyridine 1-oxide]
2.9 | 3.8 | 0.8 | < 100 | 99 | C[C@@H](c1ccc(-c2ccc(C(=O)NC3CC3)cn2)cc1)N1CC[C@](CC(C)(C)C#N)(c2ccccc2)OC1=O [EXAMPLE 2, 6-(4-((S)-1-((R)-6-(2-cyano-2-methylpropyl)-2-oxo-6-phenyl-1,3-oxazinan-3-yl)ethyl)phenyl)-N-cyclopropylnicotinamide]
13.2 | 3.8 | 3.5 | < 100 | 90.7 | CC[C@@H](c1ccc(-c2cc(C)[n+]([O-])c(C)c2)cc1)N1CC[C@](CC(C)(C)O)(c2ccccc2)OC1=O [EXAMPLE 154, 4-(4-((S)-1-((S)-6-(2-hydroxy-2-methylpropyl)-2-oxo-6-phenyl-1,3-oxazinan-3-yl)propyl)phenyl)-2,6-dimethylpyridine 1-oxide]
4.7 |  | 1.4 | < 100 | 95.7 | C[C@@H](c1ccc(-c2ccncc2)cc1)N1CC[C@](CCC(N)=O)(c2ccc(F)cc2)OC1=O [EXAMPLE 74, 3-((R)-6-(4-fluorophenyl)-2-oxo-3-((S)-1-(4-(pyridin-4-yl)phenyl)ethyl)-1,3-oxazinan-6-yl)propanamide]
3.9 | 4.5 | 0.9 | < 100 | 98.9 | Cc1ccc(-c2ccc([C@H](C)N3CC[C@](CCCO)(c4ccc(F)cc4)OC3=O)cc2)nn1 [EXAMPLE 114, (R)-6-(4-fluorophenyl)-6-(3-hydroxypropyl)-3-((S)-1-(4-(6-methylpyridazin-3-yl)phenyl)ethyl)-1,3-oxazinan-2-one]
9.2 | 5.4 | 1.7 | < 100 | 94.7 | C[C@@H](c1ccc(-c2cnc(C#N)cn2)cc1)N1CC[C@](CC(C)(C)O)(c2ccc(F)cc2)OC1=O [EXAMPLE 153, 5-(4-((S)-1-((S)-6-(4-fluorophenyl)-6-(2-hydroxy-2-methylpropyl)-2-oxo-1,3-oxazinan-3-yl)ethyl)phenyl)pyrazine-2-carbonitrile]
6.5 | 2.6 | 2.5 | < 100 | 94.5 | Cc1cc(-c2ccc([C@H](C)N3CC[C@](CCCO)(c4ccc(F)cc4)OC3=O)cc2)cc(C)[n+]1[O-] [EXAMPLE 122, 4-(4-((S)-1-((R)-6-(4-fluorophenyl)-6-(3-hydroxypropyl)-2-oxo-1,3-oxazinan-3-yl)ethyl)phenyl)-2,6-dimethylpyridine 1-oxide]
6.4 | 11.1 | 0.6 | < 100 | 99.6 | C[C@@H](c1ccc(-c2ccccn2)cc1)N1CC[C@](CC(C)(C)O)(c2ccccc2)OC1=O [EXAMPLE 86, (S)-6-(2-hydroxy-2-methylpropyl)-6-phenyl-3-((S)-1-(4-(pyridin-2-yl)phenyl)ethyl)-1,3-oxazinan-2-one]
7.1 | 4.0 | 1.8 | < 100 | 98.1 | C[C@@H](c1ccc(-c2cnccn2)cc1)N1CC[C@](CCCO)(c2ccc(F)cc2)OC1=O [EXAMPLE 108, (R)-6-(4-fluorophenyl)-6-(3-hydroxypropyl)-3-((S)-1-(4-(pyrazin-2-yl)phenyl)ethyl)-1,3-oxazinan-2-one]
5.6 |  | 0.7 | < 100 | 99.8 | Cc1cc(-c2ccc([C@H](C)N3CC[C@](CCO)(c4ccccc4)OC3=O)cc2)ccn1 [EXAMPLE 96, (S)-6-(2-hydroxyethyl)-3-((S)-1-(4-(2-methylpyridin-4-yl)phenyl)ethyl)-6-phenyl-1,3-oxazinan-2-one]
3.4 | 7.8 | 0.4 | < 100 | 99.2 | C[C@@H](c1ccc(-c2ncc(C(=O)NC3CC3)s2)cc1)N1CC[C@](CC(C)(C)C#N)(c2ccccc2)OC1=O [EXAMPLE 21, 2-(4-((S)-1-((R)-6-(2-cyano-2-methylpropyl)-2-oxo-6-phenyl-1,3-oxazinan-3-yl)ethyl)phenyl)-N-cyclopropylthiazole-5-carboxamide]
6.8 | 4.1 | 1.7 | < 100 | 95.2 | Cc1cn(-c2ncc(-c3ccc([C@H](C)N4CC[C@](CC(C)(C)O)(c5ccccc5)OC4=O)cc3)cn2)c(C)n1 [EXAMPLE 26, (S)-3-((S)-1-(4-(2-(2,4-dimethyl-1H-imidazol-1-yl)pyrimidin-5-yl)phenyl)ethyl)-6-(2-hydroxy-2-methylpropyl)-6-phenyl-1,3-oxazinan-2-one]
3.7 | 7.7 | 0.5 | < 100 | 93.9 | C[C@@H](c1ccc(-c2ccc(C#N)cn2)cc1)N1CC[C@](CCCO)(c2ccccc2)OC1=O [EXAMPLE 110, 6-(4-((S)-1-((R)-6-(3-hydroxypropyl)-2-oxo-6-phenyl-1,3-oxazinan-3-yl)ethyl)phenyl)nicotinonitrile]
29.7 | 15.1 | 2 | < 100 | 90.8 | Cc1cc(-c2ccc([C@H](C)N3CC[C@](CCCN(C)S(C)(=O)=O)(c4ccccc4)OC3=O)cc2)ccn1 [EXAMPLE 119, N-methyl-N-(3-((R)-3-((S)-1-(4-(2-methylpyridin-4-yl)phenyl)ethyl)-2-oxo-6-phenyl-1,3-oxazinan-6-yl)propyl)methanesulfonamide]
19.2 | 18.8 | 1 | < 100 | 99.4 | C[C@@H](c1ccc(-c2ccccn2)cc1)N1CC[C@](CCO)(c2ccc(F)cc2)OC1=O [EXAMPLE 57, (S)-6-(4-fluorophenyl)-6-(2-hydroxyethyl)-3-((S)-1-(4-(pyridin-2-yl)phenyl)ethyl)-1,3-oxazinan-2-one]
8.2 | 4.3 | 1.9 | < 100 | 98.5 | Cc1cc(-c2ccc([C@H](C)N3CC[C@](CCNS(C)(=O)=O)(c4ccccc4)OC3=O)cc2)ccn1 [EXAMPLE 103, N-(2-((S)-3-((S)-1-(4-(2-methylpyridin-4-yl)phenyl)ethyl)-2-oxo-6-phenyl-1,3-oxazinan-6-yl)ethyl)methanesulfonamide]
13.3 | 8.7 | 1.5 | < 100 | 96.7 | Cc1nccc(-c2ccc([C@H](C)N3CC[C@](CCCO)(c4ccc(F)cc4)OC3=O)cc2)n1 [EXAMPLE 126, (R)-6-(4-fluorophenyl)-6-(3-hydroxypropyl)-3-((S)-1-(4-(2-methylpyrimidin-4-yl)phenyl)ethyl)-1,3-oxazinan-2-one]
8.1 | 3.1 | 2.6 | < 100 | 96.4 | Cc1nccc(-c2ccc([C@H](C)N3CC[C@](CC(C)(C)C#N)(c4ccc(F)cc4)OC3=O)cc2)n1 [EXAMPLE 142, 3-((R)-6-(4-fluorophenyl)-3-((S)-1-(4-(2-methylpyrimidin-4-yl)phenyl)ethyl)-2-oxo-1,3-oxazinan-6-yl)-2,2-dimethylpropanenitrile]
20.8 | 13.1 | 1.6 | < 100 | 91.9 | C[C@@H](c1ccc(-c2ccccn2)cc1)N1CC[C@](CCC(N)=O)(c2ccc(F)cc2)OC1=O [EXAMPLE 60, 3-((R)-6-(4-fluorophenyl)-2-oxo-3-((S)-1-(4-(pyridin-2-yl)phenyl)ethyl)-1,3-oxazinan-6-yl)propanamide]
63 | 17.3 | 3.6 | < 100 | 94.3 | CC(=O)N(C)CCC[C@]1(c2ccccc2)CCN([C@@H](C)c2ccc(-c3ccnc(C)c3)cc2)C(=O)O1 [EXAMPLE 102, N-methyl-N-(3-((R)-3-((S)-1-(4-(2-methylpyridin-4-yl)phenyl)ethyl)-2-oxo-6-phenyl-1,3-oxazinan-6-yl)propyl)acetamide]
3.9 |  | 1 | < 100 | 94.3 | C[C@@H](c1ccc(-c2ccncc2)cc1)N1CC[C@](CCC(N)=O)(c2ccccc2)OC1=O [EXAMPLE 48, 3-((R)-2-oxo-6-phenyl-3-((S)-1-(4-(pyridin-4-yl)phenyl)ethyl)-1,3-oxazinan-6-yl)propanamide]
9.9 |  | 1.7 | < 100 | 98.3 | C[C@@H](c1ccc(-c2ccccn2)cc1)N1CC[C@](CCC(N)=O)(c2ccccc2)OC1=O [EXAMPLE 88, 3-((R)-2-oxo-6-phenyl-3-((S)-1-(4-(pyridin-2-yl)phenyl)ethyl)-1,3-oxazinan-6-yl)propanamide]
27.4 | 9.6 | 2.9 | < 100 | 96.3 | C[C@@H](c1ccc(-c2cncc(C#N)n2)cc1)N1CC[C@](CC(C)(C)O)(c2ccc(F)cc2)OC1=O [EXAMPLE 157, 6-(4-((S)-1-((S)-6-(4-fluorophenyl)-6-(2-hydroxy-2-methylpropyl)-2-oxo-1,3-oxazinan-3-yl)ethyl)phenyl)pyrazine-2-carbonitrile]
